For one assay, the system named is influenza A H1N1 virus. To be noted: 48 hr post-treatment, A549.
The subject of assay [1] is F. novicida (strain U112). Type of assay: cell-based.
A further assay deals with HCV replicon. Type of assay: cell-based. To be noted: normalized mean of HCV replicon readout. In general terms: Replicon systems follow genome replication, usually without infectious particles.
A further assay deals with HIV1 strain NL4-3. Type of assay: cell-based. To be noted: for HIV1 Norm MEAN: normalized mean of HIV1 replication readout.
For the next assay, the system named is EBV. To be noted: normalized mean of EBV replication readout.

Like-named read-outs stand apart in the source and are kept apart here.

Turning to SAIASGIAVS [CPEP72], the “Neuraminidase activity normalized to vehicle” value with influenza A H1N1 virus (200 µM peptide) is 1,0607; in the assay on influenza A H1N1 virus (0,823 µM peptide) it was 1,0538; in the assay on influenza A H1N1 virus (22,2 µM peptide), 1,1913; in the assay on influenza A H1N1 virus (2,4691 µM peptide), 1,1217; in the assay with influenza A H1N1 virus (7,4074 µM peptide), 1,1419; in the assay on influenza A H1N1 virus (66,6667 µM peptide), 1,1769. For the same substance, the “Francisella novicida Norm AUC” value in assay [1] stood at 1.051. In addition, the “HCV Norm MEAN” value in the assay with HCV replicon worked out at 1.456. The “activity in HIV1 screen (in words)” value in the assay on HIV1 strain NL4-3 (20 µM peptide, HeLa P4 cells, β-galactosidase) is listed as “strongly”. In addition, in the assay on HIV1 strain NL4-3, the “HIV1 Norm MEAN” value came out at 7.153. For the same substance, the “EBV Norm MEAN” value with EBV is 0.8997.
Take MSKKPGGPGKNRAVN [CPEP42]: the “Neuraminidase activity normalized to vehicle” value with influenza A H1N1 virus (200 µM peptide) is listed as 0,9312; with influenza A H1N1 virus (0,823 µM peptide), 0,9146; with influenza A H1N1 virus (22,2 µM peptide), 1,055; in the assay with influenza A H1N1 virus (2,4691 µM peptide), 0,9945; with influenza A H1N1 virus (7,4074 µM peptide), 0,9864; in the assay on influenza A H1N1 virus (66,6667 µM peptide) it was 1,0215. For the same substance, the “Francisella novicida Norm AUC” value in assay [1] was found to be 1.093. Further, the “HCV Norm MEAN” value in the assay on HCV replicon (peptide screen) stood at 0.9525. The “HIV1 Norm MEAN” value in the assay on HIV1 strain NL4-3 (peptide screen) came to 0.4686. Further, the “EBV Norm MEAN” value in the assay with EBV (peptide screen) is listed as 0.6277.
As to RRRETQV [CPEP148], the “Neuraminidase activity normalized to vehicle” value in the assay on influenza A H1N1 virus (200 µM peptide) is given as 0,7433; with influenza A H1N1 virus (0,823 µM peptide), 0,8071; in the assay on influenza A H1N1 virus (22,2 µM peptide), 0,8272; in the assay with influenza A H1N1 virus (2,4691 µM peptide), 0,7477; in the assay on influenza A H1N1 virus (7,4074 µM peptide) it was 0,8788; in the assay on influenza A H1N1 virus (66,6667 µM peptide), 0,7757. For the same substance, the “Francisella novicida Norm AUC” value in assay [1] is recorded as 0.7414. For the same substance, the “HCV Norm MEAN” value in the assay on HCV replicon is given as 0.1353. Further, the “HIV1 Norm MEAN” value in the assay on HIV1 strain NL4-3 is 0.7674. Moreover, in the assay with EBV, the “EBV Norm MEAN” value is listed as 1.54.
On to MSSDLRLTLLELVRRL [CPEP66], for which the “Neuraminidase activity normalized to vehicle” value with influenza A H1N1 virus (200 µM peptide) was 1,1231; with influenza A H1N1 virus (0,823 µM peptide), 1,0081; in the assay on influenza A H1N1 virus (22,2 µM peptide), 1,2015; in the assay on influenza A H1N1 virus (2,4691 µM peptide), 1,0026; in the assay with influenza A H1N1 virus (7,4074 µM peptide), 1,0851; with influenza A H1N1 virus (66,6667 µM peptide), 1,0904. The “Francisella novicida Norm AUC” value in assay [1] turned out to be 1.55. Further, in the assay with HCV replicon (peptide screen), the “HCV Norm MEAN” value worked out at 1.3108. The “HIV1 Norm MEAN” value with HIV1 strain NL4-3 (peptide screen) is 8.878. Further, in the assay with EBV (peptide screen), the “EBV Norm MEAN” value came out at 1.239.
As for LHCYE [CPEP152], the “Neuraminidase activity normalized to vehicle” value was 1,0605 with influenza A H1N1 virus (200 µM peptide); 0,8889 with influenza A H1N1 virus (0,823 µM peptide); 0,9121 in the assay with influenza A H1N1 virus (22,2 µM peptide); 0,8832 in the assay with influenza A H1N1 virus (2,4691 µM peptide); 0,8045 with influenza A H1N1 virus (7,4074 µM peptide); 1,0197 with influenza A H1N1 virus (66,6667 µM peptide). Further, the “Francisella novicida Norm AUC” value in assay [1] is reported as 0.5262. For the same substance, in the assay with HCV replicon, the “HCV Norm MEAN” value is recorded as 0.1555. Moreover, the “HIV1 Norm MEAN” value in the assay with HIV1 strain NL4-3 was found to be 1.7684. Besides, in the assay on EBV, the “EBV Norm MEAN” value worked out at 1.379.
In the case of “CPEP61: peptide of the viral peptide library; sequence page not shown (KRRKSGAKRR)”, the “Neuraminidase activity normalized to vehicle” value with influenza A H1N1 virus (200 µM peptide) is given as 0,867; in the assay on influenza A H1N1 virus (0,823 µM peptide) it was 1,0166; with influenza A H1N1 virus (22,2 µM peptide) it was 1,0577; in the assay on influenza A H1N1 virus (2,4691 µM peptide) it was 1,0813; in the assay on influenza A H1N1 virus (7,4074 µM peptide), 0,9769; with influenza A H1N1 virus (66,6667 µM peptide) it was 1,1022. The “Francisella novicida Norm AUC” value in assay [1] is listed as 0.6493. Moreover, the “HCV Norm MEAN” value in the assay on HCV replicon is on record as 0.1619. Besides, the “HIV1 Norm MEAN” value in the assay with HIV1 strain NL4-3 is recorded as 1.461. The “EBV Norm MEAN” value in the assay with EBV is on record as 3.372.

The values above are taken from publication PMC10835127, “Viruses traverse the human proteome through peptide interfaces that can be biomimetically leveraged for drug discovery” (Proceedings of the National Academy of Sciences of the …, 2024).
